The supplement of paper PMC10307832

Tests used:
Assay in all cases: relative viability (nuclei count vs DMSO), 5 days (fraction); higher = more cells survive
Bortezomib + Tozasertib = compound: CC(C)C[C@H](NC(=O)[C@H](Cc1ccccc1)NC(=O)c1cnccn1)B(O)O [Bortezomib] + Cc1cc(Nc2cc(N3CCN(C)CC3)nc(Sc3ccc(NC(=O)C4CC4)cc3)n2)n[nH]1 [Tozasertib] (partner 0.1 µM)
Method in brief: (§1)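 Five library-drug doses in √10 steps were combined with a fixed anchor-drug dose, or a single drug was given alone, by pin tool to lung cancer cell lines in 1536-well plates the day after seeding. Nuclei were stained and counted after 5 days. Relative viability is the nuclei count in treated wells over that in vehicle wells, taken as the median of duplicate plates.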

[1] = compound: CC1=CC(=NN1)NC2=CC(=NC(=N2)/C=C/C3=CC=CC=C3)N4CCN(CC4)C + CC1(C)CCC(c2ccc(Cl)cc2)=C(CN2CCN(c3ccc(C(=O)NS(=O)(=O)c4ccc(N[C@H](CCN5CCOCC5)CSc5ccccc5)c(S(=O)(=O)C(F)(F)F)c4)cc3)CC2)C1 [Navitoclax] (partner 0.5 µM)
Method in brief: as §1

Obatoclax + Palbociclib = compound: COC1=CC(c2cc3ccccc3[nH]2)=N/C1=C\c1[nH]c(C)cc1C [Obatoclax] + CC(=O)c1c(C)c2cnc(Nc3ccc(N4CCNCC4)cn3)nc2n(C2CCCC2)c1=O [Palbociclib] (partner 0.5 µM)
Method in brief: as §1

Cell Line | relative viability (Bortezomib + Tozasertib; first compound 0.0002 µM) | relative viability (Bortezomib + Tozasertib; first compound 0.000632 µM) | relative viability (Bortezomib + Tozasertib; first compound 0.002 µM) | relative viability (Bortezomib + Tozasertib; first compound 0.006325 µM) | relative viability (Bortezomib + Tozasertib; first compound 0.02 µM) | relative viability ([1]; first compound 0.08 µM) | relative viability ([1]; first compound 0.253 µM) | relative viability ([1]; first compound 0.8 µM) | relative viability ([1]; first compound 2.53 µM) | relative viability ([1]; first compound 8 µM) | relative viability (Obatoclax + Palbociclib; first compound 0.01 µM) | relative viability (Obatoclax + Palbociclib; first compound 0.03162 µM) | relative viability (Obatoclax + Palbociclib; first compound 0.1 µM) | relative viability (Obatoclax + Palbociclib; first compound 0.3162 µM) | relative viability (Obatoclax + Palbociclib; first compound 1 µM)
COR-L23 | 0.198 | 0.198 | 0.153 | 0.049 | 0.0491 | 1.02 | 1.07 | 0.884 | 0.302 | 0.0578 | 0.306 | 0.303 | 0.228 | 0.128 | 0.122
NCI-H460 | 0.386 | 0.366 | 0.616 | 0.304 | 0.0187 | 1.07 | 1.58 | 0.952 | 0.0095 | 0.0091 | 0.153 | 0.14 | 0.201 | 0.055 | 0.0295
HCC-827 | 0.418 | 0.447 | 0.419 | 0.12 | 0.0981 | 0.972 | 1.04 | 0.979 | 0.937 | 0.705 | 0.475 | 0.436 | 0.531 | 0.407 | 0.482
NCI-H322M | 0.468 |  | 0.442 | 0.278 | 0.308 | 1.18 | 1.41 | 1.09 | 0.802 | 0.318 | 0.491 | 0.485 | 0.58 | 0.501 | 0.452
NCI-H1666 | 0.558 | 0.664 | 0.51 | 0.296 | 0.261 | 0.951 | 0.898 | 0.906 | 0.64 | 0.222 | 0.593 | 0.692 | 0.659 | 0.638 | 0.592
NCI-H1437 | 0.405 | 0.405 | 0.403 | 0.114 | 0.118 | 1.06 | 1.12 | 1.03 | 0.816 | 0.175 | 0.306 | 0.311 | 0.324 | 0.31 | 0.237
NCI-H1944 | 0.234 | 0.248 | 0.247 | 0.195 | 0.136 | 1.04 | 1.08 | 1.03 | 0.866 | 0.266 | 0.344 | 0.313 | 0.34 | 0.318 | 0.319
SK-MES-1 | 0.935 | 0.933 | 0.882 | 0.315 | 0.127 | 1.11 | 1.21 | 1.15 | 0.479 | 0.116 | 0.295 | 0.329 | 0.247 | 0.181 | 0.203
NCI-H1355 | 0.503 | 0.591 | 0.584 | 0.131 | 0.122 | 0.878 | 0.961 | 0.974 | 0.701 | 0.386 | 0.398 | 0.391 | 0.371 | 0.387 | 0.369
SK-LU-1 | 0.284 | 0.362 | 0.282 | 0.102 | 0.1 | 0.792 | 0.905 | 0.786 | 0.385 | 0.0813 | 0.367 | 0.419 | 0.352 | 0.326 | 0.317
NCI-H2228 | 0.232 | 0.231 | 0.251 | 0.0818 | 0.102 | 1.11 | 0.893 | 0.747 | 0.0829 | 0.0768 | 0.609 | 0.792 | 0.573 | 0.525 | 0.401
NCI-H1793 | 0.316 | 0.299 | 0.444 | 0.252 | 0.102 | 0.516 | 0.446 | 0.466 | 0.156 | 0.131 | 0.286 | 0.284 | 0.323 | 0.33 | 0.384
NCI-H2347 | 0.522 | 0.676 | 0.471 | 0.195 | 0.166 | 0.762 | 0.871 | 0.912 | 0.496 | 0.361 | 0.388 | 0.406 | 0.393 | 0.489 | 0.413
A-427 | 0.212 | 0.263 | 0.193 | 0.105 | 0.102 | 1.04 | 1.02 | 0.991 | 0.627 | 0.164 | 0.54 | 0.511 | 0.419 | 0.517 | 0.462
